Measurements taken from patent publication US8765808B2, “Treatment or prevention of cancer and precancerous disorders” (CHS Pharma, Inc., priority 2005, dated 2014).
Read-outs that look alike come from different tables or passages of the source.

How the values were obtained:
[1] = test system: SCC-25 squamous cell skin cancer cell line; assay: MTS cell viability after pretreatment and oxidative stress, SCC skin cancer cells; type: cell-based, human; details: for sensitizing skin cancer cells to killing by TBHP: other NSAIDs at comparable active concentrations, compared to sulindac; for cancer killing effect of epimers, SCC cells: 500 μM 24 hours, then TBHP 2 hours (FIG. 24); for enhancing the killing of skin cancer cells (SCC-25) when exposed to TBHP: 24 hr pretreatment with 500 μM sulindac sulfone, 500 μM SMO or 50 μM sulindac sulfide, TBHP 2 hr (FIG. 14)
Protocol: (§1) SCC-25 is a human squamous cell carcinoma cell line developed by J G Rheinwald [Rheinwald, 1981]. […] The cells were maintained in minimum essential medium (Eagle) supplemented with 2 mM L-glutamine, Earle's BSS containing 1.5 g/L sodium bicarbonate, 0.1 mM non-essential amino acids, 1.0 mM sodium pyruvate and 10% fetal bovine serum.
The experimental approach was to pretreat SCC cells with sulindac for 24 hr prior to exposure to TBHP for 2 hr. Sulindac (Sigma; S-8139) was freshly prepared as a 1M stock solution in 1M Tris.Cl, pH 8.0. SCC cells were suspended in culture medium containing 10% fetal bovine serum at a cell density of 6×10^5 cells/ml. Cell suspensions containing 500 μM sulindac or no sulindac (Control) were plated in 96 well microtiter plates with a total of 6×10^4 cells per well. The plates were incubated for 24 hr at 37° C. in a 5% CO2 incubator. The culture medium was then removed and the cells washed once with fresh culture medium without serum. After removal of the wash solution, fresh culture medium without serum that contained the indicated final concentration of TBHP was added to the cells for 2 hrs. Serum was omitted from the medium during the two-hour exposure to TBHP since TBHP may be rapidly depleted in the presence of serum.

[2] = test system: RKO colon cancer cell line; assay: MTS cell viability after pretreatment and oxidative stress, RKO colon cancer cells; type: cell-based, human; details: other NSAIDs at comparable active concentrations, compared to sulindac
Protocol: as §1, with “RKO” for “SCC-25”, “colon” for “squamous cell”, “Michael Brattain [Brattain, 1984].” for “J G Rheinwald [Rheinwald, 1981].”
Experiments were performed with the RKO colon cancer cells that were pretreated with 500 μM sulindac using TBHP.

HeLa cancer cells = details: 200 μM epimer, 4 hours, serum-free medium
Protocol: (§2) After the incubations, the cells were pelleted by low speed centrifugation and lysed by the addition of 200 μl of 100% acetonitrile, followed by vigorous vortexing. The lysate was centrifuged for 15 minutes at 14,000×g to pellet cell debris. 50 μl of the supernatant was transferred to an HPLC autosampler microvial. The separation of metabolites is carried out on a 4.6×75 mm C18 reverse-phase column. […] The metabolites are detected at a wavelength of 330 nm.
(§3) The cells are incubated with 200 μM R- or S-Sulindac epimer for 4 hours in a defined, serum-free medium (EX-CELL^SM). After incubation, the cells are collected, rinsed and lysed with acetonitrile. The cytosolic contents are separated on a C-18 column.

[3] = test system: Cancer Skin (skin SCC) cells; details: 200 μM epimer, 4 hours, serum-free medium
Protocol: as §2, §3

[4] = test system: lung carcinoma cell line designated A549; assay: MTS cell viability after pretreatment and oxidative stress, lung cancer cells
Protocol: Cell viability was determined by the [sequence] 96®-Aqueous One Cell Proliferation Assay (Promega) according to the manufacturer's instructions. The assay utilizes a novel tetrazolium compound (3-(4,5-dimethylthiazol-2-yl)-5-(3-carboxymethoxyphenyl)-2-(4-sulfophenyl)-2H-tetrazolium; MTS) and an electron-coupling reagent (phenazine ethosulfate; PES). Metabolically active cells convert the MTS to a water-soluble formazan by the action of cellular dehydrogenases. The amount of formazan produced is measured by absorbance at 490 nm using a colorimetric microtiter plate reader (BIORAD; Model 2550). Absorbance is directly proportional to the number of viable cells.
Experiments using similar methods were performed with a lung carcinoma cell line designated A549. […] Cells were grown in Ham's F12K medium supplemented with final concentrations of 2 mM L-glutamine, 1.6 g/L sodium bicarbonate and 10% fetal bovine serum. Cultures were maintained between 6×10^3-6×10^4 cells/cm^2 in standard tissue culture flasks. The protocol for pretreatment of cells with 500 μM sulindac followed by a two hour exposure to various concentrations of TBHP was the same as that described for the RKO colon cancer cells.
Following a 24 hr pretreatment with 500 μM sulindac, the cells were washed once to remove the excess sulindac before exposure to TBHP for 2 hr.

[5] = test system: neonatal rat cardiac myocytes; details: for Amount Formed (sulindac sulfide): Normal Cardiomyocyte, 200 μM epimer, 4 hours, serum-free medium
Protocol: FIG. 23 is a graph showing the metabolic conversion of the R & S epimers of sulindac to the sulfide form in cardiac myocytes. The amount of sulindac sulfide formed by 10^6 cells incubated with 400 μM sulindac, R, S or RS mixture is measured as a function of time of incubation. […] The absorbance was measured at 330 nm.
To inhibit fibroblast growth, 0.1 mM bromodeoxyuridine was included in the medium for the first 3-5 days after plating. Cell cultures are incubated with sulindac or its individual epimers for specified times.
as §2, §3

Normal lung cells = assay: Conversion of sulindac epimers to sulindac sulfide in whole cells, normal lung; type: in vitro ADME; details: 200 μM epimer, 4 hours; for Amount Formed (sulindac sulfide): serum-free medium
Protocol: as §2, §3

Cancer Lung cells = assay: Conversion of sulindac epimers to sulindac sulfide in whole cells, lung cancer; type: in vitro ADME; details: 200 μM epimer, 4 hours, serum-free medium
Protocol: as §2, §3

[6] = test system: Normal HEK skin cells (human neonatal epidermal keratinocytes); assay: Intracellular ROS by indicator dye fluorescence, normal HEK skin cells; details: Table 4, alone or after Sul 500 uM
Protocol: Experimental conditions: Normal HEK skin cells plated onto 6-well plates at cell density of 60-70% confluence. Sulindac (0.5 mM)×24 hours (cell density remained about the same) followed by TBHP×2 hours followed by ROS indicator dye (5 μM)×1 hour (Table 1).
Human neonatal epidermal keratinocytes were plated into 6-well plates at a cell density of 60-70% confluence. The cultures were pretreated with sulindac (500 uM) for 34 hours followed by the addition of different concentrations of TBHP for 2 hours. During this period of time, the cell density in the 6-well plates remained the same (there was no increase in cell proliferation). This was followed by the addition of the ROS indicator dye.

SCC skin cancer cells = assay: Intracellular ROS by indicator dye fluorescence, SCC skin cancer cells
Protocol: SCC skin cancer cells were plated onto 6-well plates at a cell density of 50-60% confluence. The cultures were pretreated with sulindac (500 uM) for 24 hours followed by the addition of TBHP (100 uM) for two hours. During this period of time, the cell density in the 6-well plates increased to 80-90% confluent.

[7] = test system: precancerous growths and/or BCC's; assay: Topical sulindac gel followed by hydrogen peroxide solution in patients; details: applied alone to the skin condition
[8] = cited from earlier work
[9] = test system: WM-266-4 Melanoma skin cell line; assay: MTS cell viability after pretreatment and oxidative stress, melanoma cells; type: cell-based, human; details: sulindac sulfide pretreatment
[10] = Table 2, Sul 0.5 mM 24 hours and/or TBHP 100 μM 2 hours
[11] = Table 3, Sul 500 μM 24 hours and/or TBHP 100 μM 2 hours

With CC(=O)Oc1ccccc1C(=O)O [Acetylsalicylic acid] the “sensitizing skin cancer cells to killing by TBHP” value (“sensitizing skin cancer cells” below) [1] was “ineffective” and the “sensitizing colon cancer cells to killing by TBHP” value (shortened to “sensitizing colon cancer cells”) [2] was “ineffective”.
For CC1=C(CC(=O)O)c2cc(F)ccc2/C1=C\c1ccc([S+](C)[O-])cc1 (stereo not shown) [R-epimer, R-sulindac sulfoxide], the “Amount Formed (sulindac sulfide)” value (HeLa cancer cells) was 9.3 picomoles, the “Amount Formed (sulindac sulfide)” value [3] was 35.3 picomoles and the “cancer killing effect of epimers, SCC cells” value [1] was “comparable in potency to the sulindac racemic mixture”. The “cancer killing effect of epimers, lung cancer cells” value [4] was “comparable in potency to the sulindac racemic mixture”, the “Amount Formed (sulindac sulfide)” value [5] was 11.6 picomoles and the “conversion to the sulfide compared to the S-epimer” value ([5]; normal cardiac myocytes, 400 μM, time course (FIG. 23)) was “greater than 10 fold less conversion”. For the same compound, the “R/S (%)” value (Normal lung cells) was 6%, the “R/S (%)” value (Normal lung cells; listed as R epimer) was under 10% and the “Amount Formed (sulindac sulfide)” value (Normal lung cells) was 2.2 picomoles. The “Amount Formed (sulindac sulfide)” value (Cancer Lung cells) was 7.5 picomoles.
In the case of CC1=C(CC(=O)O)c2cc(F)ccc2/C1=C\c1ccc([S@+](C)[O-])cc1 [S-epimer, S-sulindac sulfoxide], the “Amount Formed (sulindac sulfide)” value (HeLa cancer cells) is reported as 7.9 picomoles, the “Amount Formed (sulindac sulfide)” value [3] is reported as 57 picomoles and the “cancer killing effect of epimers, SCC cells” value [1] is reported as “comparable in potency to the sulindac racemic mixture”. The “cancer killing effect of epimers, lung cancer cells” value [4] was “comparable in potency to the sulindac racemic mixture”, the “Amount Formed (sulindac sulfide)” value [5] was 120.9 picomoles and the “Amount Formed (sulindac sulfide)” value (Normal lung cells) was 35 picomoles. For the same compound, the “Amount Formed (sulindac sulfide)” value (Cancer Lung cells) was 17.7 picomoles.
In the case of CC(C)(C)OO [TBHP, tert-butyl hydroperoxide], the “% Cells containing ROS” value ([6]; TBHP 200 uM 2 hours) is reported as 2%, the “fold increase compared to untreated control” value (from here on “fold increase”) ([6]; TBHP 200 uM 2 hours) is reported as 0 fold and the “% Cells containing ROS” value ([6]; TBHP 400 uM 2 hours) is reported as 5%. For the same compound, the “fold increase” value ([6]; TBHP 400 uM 2 hours) was 2 fold, the “% Cells containing ROS” value ([6]; TBHP 800 uM 2 hours) was 60% and the “fold increase” value ([6]; TBHP 800 uM 2 hours) was 20 fold. The “viable cells without sulindac pretreatment” value ([4]; 1.5-2.0 mM TBHP, 2 hr, untreated (no sulindac) cells) was “approximately 50%”, the “% Cells with ROS Uptake by Fluorescence” value (SCC skin cancer cells; [10]) was 11% and the “fold increase” value (SCC skin cancer cells; [10]) was 7 fold. The “% Cells containing ROS” value (SCC skin cancer cells; [11]) was 11%, the “fold increase” value (SCC skin cancer cells; [11]) was 7 fold and the “ROS levels in SCC skin cancer cells, agent alone” value (SCC skin cancer cells; sulindac 500 uM or TBHP 100 uM alone) was “enhanced the ROS levels”.
With O=C(O)Cc1ccccc1Nc1c(Cl)cccc1Cl [diclofenac sodium] the “sensitizing skin cancer cells” value [1] was “ineffective” and the “sensitizing colon cancer cells” value [2] was “ineffective”.
For OO [hydrogen peroxide], the “effect on the precancerous or cancerous growth when applied alone” value [7] is listed as “no effect”, the skin irritation ([8]; 3-8% hydrogen peroxide, 24 hours under occlusive dressing, intact and abraded skin, rabbits) is listed as “nonirritating” and the skin irritation ([8]; 10% hydrogen peroxide, 4 hour exposure) is listed as “slight”. The skin irritation ([8]; 35% hydrogen peroxide) was “mild” and the “classification as skin irritant by the European Union criteria” value ([8]; hydrogen peroxide solutions of 35% or less, rabbits) was “would not be classified as skin irritants”.
For CC(C)Cc1ccc(C(C)C(=O)O)cc1 (stereo not shown) [ibuprofen], the “sensitizing skin cancer cells” value [1] was “ineffective” and the “sensitizing colon cancer cells” value [2] was “ineffective”.
For CSc1ccc(/C=C2/C(C)=C(CC(=O)O)c3cc(F)ccc32)cc1 [sulindac sulfide], the “enhancing the killing of skin cancer cells (SCC-25) when exposed to TBHP” value (“enhancing the killing” below) [1] was “not effective”, the “reducing the cell viability of lung cancer cells exposed to TBHP” value ([4]; 250 μM sulindac sulfide 24 hr, TBHP 2 hr (FIG. 15)) was “had activity in reducing the cell viability” and the “reducing the cell viability of melanoma cells exposed to TBHP” value [9] was “had activity in reducing the cell viability”.
For CC1=C(CC(=O)O)c2cc(F)ccc2/C1=C\c1ccc(S(C)(=O)=O)cc1 [sulindac sulfone], the “enhancing the killing” value [1] was “effective in enhancing the killing” and the “killing effect in all cancer cell studies” value ([4]; FIG. 15, 500 μM sulindac, 250 μM sulindac sulfone) was “most potent killing effect”.
In the case of sulindac methionine sulfoxide [SMO], the “enhancing the killing” value [1] is reported as “not effective”.
